Results: patent publication US20130209543A1, “ENHANCED TREATMENT REGIMENS USING MTOR INHIBITORS” (Intellikine LLC, priority 2011, published 2013)
Like-named read-outs stand apart in the source and are kept apart here.

Columns and labels:
Assay type in all cases: biochemical
[1] = biological target: PI3K α (Homo sapiens, UniProt P42336); test: PI3K α kinase assay
[2] = biological target: T1, mTOR (Homo sapiens, UniProt P42345); test: mTOR kinase inhibition assay
T1 construct: purchased Invitrogen
Procedure: The compounds described herein and any other mTorC1/mTorC2 inhibitors known in the art can be tested against recombinant mTOR (Invitrogen) in an assay containing 50 mM HEPES, pH 7.5, 1 mM EGTA, 10 mM MgCl2, 2.5 mM, 0.01% Tween, 10 μM ATP (2.5 μCi of μ-32P-ATP), and 3 mg/mL BSA. Rat recombinant PHAS-1/4EBP1 (Calbiochem; 2 mg/mL) is used as a substrate. Reactions are terminated by spotting onto nitrocellulose, which is washed with 1M NaCl/1% phosphoric acid (approximately 6 times, 5-10 minutes each). Sheets are dried and the transferred radioactivity quantitated by phosphorimaging.
For instance, one can use Invitrogen's LanthaScreen™ Kinase assay to test the inhibitors of mTOR disclosed herein. This assay is a time resolved FRET platform that measures the phosphorylation of GFP labeled 4EBP1 by mTOR kinase. The kinase reaction is performed in a white 384 well microtitre plate. The total reaction volume is 20 μl per well and the reaction buffer composition is 50 mM HEPES pH7.5, 0.01% Polysorbate 20, 1 mM EGTA, 10 mM MnCl2, and 2 mM DTT. In the first step, each well receives 2 ul of test compound in 20% dimethylsulphoxide resulting in a 2% DMSO final concentration. Next, 8ul of mTOR diluted in reaction buffer is added per well for a 60 ng/ml final concentration. To start the reaction, 10 ul of an ATP/GFP-4EBP1 mixture (diluted in reaction buffer) is added per well for a final concentration of 10 μM ATP and 0.5 μM GFP-4EBP1. The plate is sealed and incubated for 1 hour at room temperature. […] The plate is sealed, incubated for 1 hour at room temperature, and then read on a plate reader set up for LanthaScreen™ TR-FRET. Data is analyzed and IC50s are generated using GraphPad Prism 5.

[3] = biological target: PI3K δ (Homo sapiens, UniProt O00329); test: PI3K δ kinase assay
Sequence of PI3K δ (O00329 whole entry, species assumed): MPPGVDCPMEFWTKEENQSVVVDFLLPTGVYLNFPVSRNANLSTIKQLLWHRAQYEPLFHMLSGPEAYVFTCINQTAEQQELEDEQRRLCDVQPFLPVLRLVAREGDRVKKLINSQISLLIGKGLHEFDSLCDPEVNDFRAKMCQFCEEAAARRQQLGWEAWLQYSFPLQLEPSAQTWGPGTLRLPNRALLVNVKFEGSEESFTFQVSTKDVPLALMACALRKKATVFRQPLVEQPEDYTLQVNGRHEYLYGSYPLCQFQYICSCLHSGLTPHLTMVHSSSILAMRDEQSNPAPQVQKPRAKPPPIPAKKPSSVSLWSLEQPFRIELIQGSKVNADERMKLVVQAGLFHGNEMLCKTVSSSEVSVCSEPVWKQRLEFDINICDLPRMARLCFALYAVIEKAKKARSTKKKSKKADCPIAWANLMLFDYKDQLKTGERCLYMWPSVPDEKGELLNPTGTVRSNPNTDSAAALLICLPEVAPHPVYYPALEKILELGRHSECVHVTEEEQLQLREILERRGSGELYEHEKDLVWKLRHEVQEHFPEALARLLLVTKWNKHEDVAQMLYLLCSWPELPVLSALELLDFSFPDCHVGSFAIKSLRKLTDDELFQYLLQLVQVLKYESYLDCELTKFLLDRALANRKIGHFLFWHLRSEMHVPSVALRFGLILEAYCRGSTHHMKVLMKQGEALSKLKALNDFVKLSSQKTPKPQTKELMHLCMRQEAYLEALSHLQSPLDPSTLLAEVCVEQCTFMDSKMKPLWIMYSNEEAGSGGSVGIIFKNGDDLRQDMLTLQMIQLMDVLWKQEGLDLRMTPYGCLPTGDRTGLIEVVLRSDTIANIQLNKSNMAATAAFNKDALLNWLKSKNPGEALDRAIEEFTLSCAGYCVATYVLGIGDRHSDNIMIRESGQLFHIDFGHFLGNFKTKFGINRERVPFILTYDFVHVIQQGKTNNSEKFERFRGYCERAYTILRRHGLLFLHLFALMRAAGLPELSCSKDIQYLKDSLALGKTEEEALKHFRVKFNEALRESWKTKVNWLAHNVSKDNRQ
Sequence of PI3K δ (P27986 whole entry partner, species assumed): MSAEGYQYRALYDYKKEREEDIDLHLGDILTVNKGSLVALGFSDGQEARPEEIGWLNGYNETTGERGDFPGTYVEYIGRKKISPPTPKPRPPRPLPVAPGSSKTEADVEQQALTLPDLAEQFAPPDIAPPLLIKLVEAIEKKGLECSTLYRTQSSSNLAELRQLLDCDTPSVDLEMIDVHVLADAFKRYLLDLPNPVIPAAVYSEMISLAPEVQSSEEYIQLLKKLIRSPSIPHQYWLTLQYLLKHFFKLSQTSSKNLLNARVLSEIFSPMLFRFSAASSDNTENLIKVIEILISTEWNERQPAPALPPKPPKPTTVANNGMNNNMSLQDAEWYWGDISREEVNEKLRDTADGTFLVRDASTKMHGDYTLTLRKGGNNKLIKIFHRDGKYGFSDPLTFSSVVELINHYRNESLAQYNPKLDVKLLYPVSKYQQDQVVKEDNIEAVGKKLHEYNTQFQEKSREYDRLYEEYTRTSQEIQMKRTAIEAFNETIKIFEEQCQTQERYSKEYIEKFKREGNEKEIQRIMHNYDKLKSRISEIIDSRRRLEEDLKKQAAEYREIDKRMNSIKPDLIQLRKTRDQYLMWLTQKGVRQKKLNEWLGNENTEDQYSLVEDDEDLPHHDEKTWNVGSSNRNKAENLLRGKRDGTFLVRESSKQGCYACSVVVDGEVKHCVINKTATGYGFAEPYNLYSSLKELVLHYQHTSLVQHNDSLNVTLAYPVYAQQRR

[4] = biological target: PI3K β (Homo sapiens, UniProt P42338); test: PI3K β kinase assay
Sequence of PI3K β (P42338 whole entry, species assumed): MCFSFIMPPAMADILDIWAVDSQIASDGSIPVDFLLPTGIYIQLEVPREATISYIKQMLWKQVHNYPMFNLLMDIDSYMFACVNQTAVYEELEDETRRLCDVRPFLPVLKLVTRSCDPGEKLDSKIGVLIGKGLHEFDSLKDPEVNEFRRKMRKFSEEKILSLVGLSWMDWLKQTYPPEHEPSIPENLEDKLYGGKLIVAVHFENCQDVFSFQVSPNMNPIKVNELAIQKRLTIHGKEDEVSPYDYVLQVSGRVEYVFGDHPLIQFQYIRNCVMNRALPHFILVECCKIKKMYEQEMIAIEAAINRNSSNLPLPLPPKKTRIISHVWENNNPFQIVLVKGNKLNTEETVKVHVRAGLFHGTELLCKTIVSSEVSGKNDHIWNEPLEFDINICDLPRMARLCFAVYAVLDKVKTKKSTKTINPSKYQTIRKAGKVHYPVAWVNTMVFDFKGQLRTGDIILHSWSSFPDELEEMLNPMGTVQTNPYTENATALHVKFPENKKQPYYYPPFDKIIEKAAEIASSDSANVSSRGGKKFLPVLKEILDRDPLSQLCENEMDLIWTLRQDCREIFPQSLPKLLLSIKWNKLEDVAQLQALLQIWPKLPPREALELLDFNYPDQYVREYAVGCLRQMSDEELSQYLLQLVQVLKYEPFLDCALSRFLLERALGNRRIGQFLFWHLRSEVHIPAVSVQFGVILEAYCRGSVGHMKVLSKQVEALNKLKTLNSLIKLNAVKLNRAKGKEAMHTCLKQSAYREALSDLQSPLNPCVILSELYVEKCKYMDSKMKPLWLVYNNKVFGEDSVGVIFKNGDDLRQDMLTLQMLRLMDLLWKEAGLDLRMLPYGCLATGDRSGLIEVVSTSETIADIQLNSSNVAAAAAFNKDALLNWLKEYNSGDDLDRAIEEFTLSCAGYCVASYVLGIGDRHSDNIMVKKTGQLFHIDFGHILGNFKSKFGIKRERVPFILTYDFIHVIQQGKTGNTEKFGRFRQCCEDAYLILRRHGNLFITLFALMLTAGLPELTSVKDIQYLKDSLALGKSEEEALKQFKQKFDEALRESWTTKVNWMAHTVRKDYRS
Sequence of PI3K β (P27986 whole entry partner, species assumed): as the sequence (P27986 whole entry partner, species assumed) above

[5] = biological target: PI3K γ (Homo sapiens, UniProt P48736); test: PI3K γ kinase assay
Sequence of PI3K γ (P48736 whole entry, species assumed): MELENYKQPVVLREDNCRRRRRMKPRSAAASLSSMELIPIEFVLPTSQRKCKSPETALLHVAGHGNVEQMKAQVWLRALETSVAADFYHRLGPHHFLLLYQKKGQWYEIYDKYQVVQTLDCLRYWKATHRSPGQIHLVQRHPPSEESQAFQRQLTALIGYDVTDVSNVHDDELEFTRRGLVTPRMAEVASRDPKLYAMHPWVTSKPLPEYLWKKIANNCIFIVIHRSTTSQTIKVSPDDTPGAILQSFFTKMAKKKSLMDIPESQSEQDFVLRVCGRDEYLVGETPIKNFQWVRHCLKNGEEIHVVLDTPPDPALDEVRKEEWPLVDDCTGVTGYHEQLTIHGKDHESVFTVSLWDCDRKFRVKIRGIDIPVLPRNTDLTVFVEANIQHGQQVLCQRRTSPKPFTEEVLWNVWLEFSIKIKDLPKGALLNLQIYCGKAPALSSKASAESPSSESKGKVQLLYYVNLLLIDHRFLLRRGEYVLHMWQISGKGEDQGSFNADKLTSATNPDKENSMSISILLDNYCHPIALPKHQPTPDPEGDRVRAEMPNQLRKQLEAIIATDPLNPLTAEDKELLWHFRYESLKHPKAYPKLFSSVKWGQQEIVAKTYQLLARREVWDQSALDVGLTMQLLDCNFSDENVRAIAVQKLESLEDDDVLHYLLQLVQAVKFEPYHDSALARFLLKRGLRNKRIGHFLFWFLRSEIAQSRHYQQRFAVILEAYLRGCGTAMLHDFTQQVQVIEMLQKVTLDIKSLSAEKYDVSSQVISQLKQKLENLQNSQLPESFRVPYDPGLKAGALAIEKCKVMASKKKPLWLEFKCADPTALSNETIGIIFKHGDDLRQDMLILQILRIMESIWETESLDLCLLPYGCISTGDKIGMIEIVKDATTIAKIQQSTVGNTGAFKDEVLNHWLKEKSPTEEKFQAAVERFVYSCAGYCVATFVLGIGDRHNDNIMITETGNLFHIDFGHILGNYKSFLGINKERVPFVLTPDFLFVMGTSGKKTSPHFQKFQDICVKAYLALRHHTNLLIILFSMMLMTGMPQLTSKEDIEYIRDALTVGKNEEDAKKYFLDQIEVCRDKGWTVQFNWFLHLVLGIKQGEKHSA

Sequence of PI3K α (P42336 whole entry, species assumed): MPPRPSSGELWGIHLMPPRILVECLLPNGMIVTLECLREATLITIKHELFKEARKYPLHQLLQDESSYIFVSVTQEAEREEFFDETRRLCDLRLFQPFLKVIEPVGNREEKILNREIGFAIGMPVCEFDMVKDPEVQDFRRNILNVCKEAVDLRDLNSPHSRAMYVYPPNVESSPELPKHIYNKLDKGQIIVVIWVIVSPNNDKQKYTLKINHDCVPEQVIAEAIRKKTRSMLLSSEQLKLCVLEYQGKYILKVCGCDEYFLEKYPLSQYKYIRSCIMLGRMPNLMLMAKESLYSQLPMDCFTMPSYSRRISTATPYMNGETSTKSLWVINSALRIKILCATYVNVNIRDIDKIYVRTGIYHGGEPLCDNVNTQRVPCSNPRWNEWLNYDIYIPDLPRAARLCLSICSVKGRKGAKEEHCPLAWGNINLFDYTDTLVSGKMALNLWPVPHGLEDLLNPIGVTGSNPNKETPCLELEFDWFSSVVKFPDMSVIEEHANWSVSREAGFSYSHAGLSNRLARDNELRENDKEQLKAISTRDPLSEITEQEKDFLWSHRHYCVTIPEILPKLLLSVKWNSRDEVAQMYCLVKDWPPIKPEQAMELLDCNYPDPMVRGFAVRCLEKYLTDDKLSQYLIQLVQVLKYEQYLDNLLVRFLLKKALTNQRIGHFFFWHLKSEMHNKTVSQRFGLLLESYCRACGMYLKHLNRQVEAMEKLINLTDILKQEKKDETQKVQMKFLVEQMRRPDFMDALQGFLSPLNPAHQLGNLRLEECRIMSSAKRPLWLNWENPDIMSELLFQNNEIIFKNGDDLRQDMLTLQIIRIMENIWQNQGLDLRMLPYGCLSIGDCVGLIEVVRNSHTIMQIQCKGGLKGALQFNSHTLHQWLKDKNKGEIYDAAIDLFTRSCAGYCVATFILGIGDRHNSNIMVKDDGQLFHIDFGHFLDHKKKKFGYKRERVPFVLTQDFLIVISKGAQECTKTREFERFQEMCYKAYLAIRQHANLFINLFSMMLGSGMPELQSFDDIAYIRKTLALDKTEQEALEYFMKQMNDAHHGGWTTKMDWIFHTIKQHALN
Sequence of PI3K α (P27986 whole entry partner, species assumed): as the sequence (P27986 whole entry partner, species assumed) above

Structure (SMILES)	IC50 ([1]; Table 1) [nM]	IC50 ([2]; Table 1, read-out: mTOR IC50) [nM]	IC50 ([3]; Table 1) [nM]	IC50 ([4]; Table 1) [nM]	IC50 ([5]; Table 2) [nM]	IC50 ([1]; Table 2) [nM]	IC50 ([2]; Table 2, read-out: mTORC IC50) [nM]	IC50 ([3]; Table 2) [nM]	IC50 ([4]; Table 2) [nM]	IC50 ([5]; Table 1) [nM]
COC(=O)Nc1noc2cc(-c3nn(C(C)C)c4ncnc(N)c34)ccc12 [Compound 20]	< 10000	< 10000	< 10000	> 10000						
CC(C)n1nc(-c2cc3cccc(Cl)c3[nH]2)c2c(N)ncnc21 [Compound 50]					100 to 500	> 500	25 to 50	100 to 500	> 500	
Nc1noc2ccc(-c3nn(CC(=O)N4CCOCC4)c4ncnc(N)c34)cc12 [Compound 17]	> 10000	> 10000	> 10000							> 10000
COc1cc(Cl)c2[nH]c(-c3nn(C4CCOCC4)c4ncnc(N)c34)cc2c1 [Compound 67]					> 500	> 500	> 500	> 500	> 500	
CC(C)n1nc(-c2cc3ccccc3n2C)c2c(N)ncnc21 [Compound 6]						> 500	> 500			
CC(C)n1nc(-c2cc3cc(F)ccc3[nH]2)c2c(N)ncnc21 [Compound 3]						> 500	100 to 500			
Nc1ncnc2c1c(-c1cc3cccc(O)c3[nH]1)nn2C1CCOCC1 [Compound 62]					> 500	> 500	< 5	50 to 100	> 500	
CC(C)n1nc(-c2cc3c(Cl)ccc(O)c3[nH]2)c2c(N)ncnc21 [Compound 39]					> 500	> 500	5 to 10	> 500		
COc1cccc2cc(-c3nn(C4CCN(C(=O)C5CC5)CC4)c4ncnc(N)c34)[nH]c12 [Compound 66]					> 500	> 500	> 500	> 500	> 500	
Nc1ncnc2c1c(-c1cc3cc(O)ccc3[nH]1)nn2CCN1CCOCC1 [Compound 33]					> 500	> 500	100 to 500	> 500		
Cc1nccn1CCn1nc(-c2cc3cc(O)ccc3[nH]2)c2c(N)ncnc21 [Compound 44]						> 500	50 to 100	> 500	> 500	
COc1cnc2[nH]c(-c3nn(C(C)C)c4ncnc(N)c34)cc2c1 [Compound 19]						> 500	> 500			
CC(C)n1nc(-c2ccc3c(NC4CC4)noc3c2)c2c(N)ncnc21 [Compound 14]	< 10000	< 10000	< 10000							
CC(C)n1nc(-c2cc3cc(Cl)ccc3[nH]2)c2c(N)ncnc21 [Compound 17]						> 500	> 500			
Nc1ncnc2c1c(-c1cc3cc(O)ccc3[nH]1)nn2CC(=O)N1CCOCC1 [Compound 34]					> 500	> 500	> 500	> 500		
COc1cc(Cl)c2[nH]c(-c3nn(C(C)C)c4ncnc(N)c34)cc2c1 [Compound 13]						> 500	> 500			
CC(C)N1CCC(n2nc(-c3cc4cc(O)ccc4[nH]3)c3c(N)ncnc32)CC1 [Compound 55]					> 500	> 500	100 to 500		> 500	
Nc1ncnc2c1c(-c1cc3cc(O)ccc3[nH]1)nn2C1CCN(C(=O)C2CC2)CC1 [Compound 31]						> 500	10 to 25	100 to 500	> 500	
CC(C)n1nc(-c2cc3cc(C#N)ccc3[nH]2)c2c(N)ncnc21 [Compound 4]						> 500	> 500			
CC(C)n1nc(-c2cc3cc(O)c(Cl)cc3[nH]2)c2c(N)ncnc21 [Compound 32]					> 500	> 500	100 to 500	> 500		
CNc1noc2cc(-c3nn(C(C)C)c4ncnc(N)c34)ccc12 [Compound 13]	< 10000	< 10000	< 1000							< 1000
Nc1ncnc2c1c(-c1cc3cc(O)cc(Cl)c3[nH]1)nn2C1CCOCC1 [Compound 68]					25 to 50	100 to 500	< 5	10 to 25	> 500	
CC(=O)Nc1nc2ccc(-c3nn(C(C)C)c4ncnc(N)c34)cc2o1 [Compound 3]	> 10000									
COc1ccc(Cl)c2cc(-c3nn(C4CCOCC4)c4ncnc(N)c34)[nH]c12 [Compound 61]					> 500	> 500	10 to 25	> 500	> 500	
CC(=O)N1CCC(n2nc(-c3cc4ccc(O)cc4[nH]3)c3c(N)ncnc32)CC1 [Compound 65]					10 to 25	25 to 50	5 to 10	10 to 25	> 500	
Nc1nc2cc(-c3nn(C4CC(=O)C4)c4ncnc(N)c34)ccc2o1 [Compound 25]	< 1000		< 1000	< 10000						< 100
CC(C)n1nc(-c2cc3cc(O)ccc3[nH]2)c2c(N)nccc21 [Compound 45]							> 500			
COCCn1nc(-c2cc3cc(O)ccc3[nH]2)c2c(N)ncnc21 [Compound 40]					> 500	> 500	50 to 100	> 500		
